Measurements taken from publication PMC8544286, “Screening and Identification of a Novel Anti-tuberculosis Compound That Targets Deoxyuridine 5′-Triphosphate Nucleotidohydrolase” (Frontiers in Microbiology, 2021).
Values after ≈ are worked out from the molar mass of the structure shown. Where two headings read alike, the source gives them in different places.

Legend:
[1] = test system: sensitive strain STB-FJ05060; assay: Microplate alamar blue assay (MABA), STB-FJ05060; format: cell-based; conditions: Mycobacterium tuberculosis, STBFJ05060, 168 h
human dUTPase [2] = target: T1, human dUTPase (Homo sapiens, UniProt P33316); assay: biochemical
in vitro = format: cell-based; conditions: 24 h, CCK-8
Description: MRC-5, Vero E6, and Caco-2 cells were tested. […] Meanwhile, 2% DMSO was used as a negative control. After incubation for 24 h, 2-(2-methoxy-4-nitrophenyl)-3-(4-nitrophenyl)-5-(2,4-disulfophenyl)-2H-tetrazolium, monosodium salt (WST-8) was added. The experimental method referred to the kit instructions. All the experiments were repeated three times.

[3] = test system: sensitive strain STB-FJ05349; assay: Microplate alamar blue assay (MABA), STB-FJ05349; format: cell-based; conditions: Mycobacterium tuberculosis, STBFJ05349, 168 h
human dUTPase [4] = target: T1, human dUTPase; assay: Surface plasmon resonance (SPR), human dUTPase; format: binding; conditions: human dUTPase on CM5 chip
[5] = test system: M. tuberculosis standard strain H37Rv; assay: Microplate alamar blue assay (MABA), H37Rv; format: cell-based; conditions: Mycobacterium tuberculosis, 168 h
[6] = target: M. tuberculosis dUTPase (Mt-dUTPase) (Mycobacterium tuberculosis, UniProt P9WNS5); format: biochemical
[7] = STB-FJ05060, MABA, 7 days at 37°C, read-out: MIC
[8] = STB-FJ05349, MABA, 7 days at 37°C, read-out: MIC
[9] = H37Rv, MABA, 7 days at 37°C, read-out: MIC

T1 sequence (P33316 other isoform, or with tags, fused parts or gaps): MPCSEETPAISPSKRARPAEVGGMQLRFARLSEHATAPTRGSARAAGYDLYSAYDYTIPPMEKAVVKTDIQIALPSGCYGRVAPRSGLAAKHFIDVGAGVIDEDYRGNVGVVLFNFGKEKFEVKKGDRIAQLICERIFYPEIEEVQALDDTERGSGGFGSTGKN
Chain of M. tuberculosis dUTPase (Mt-dUTPase) (P9WNS5 whole entry): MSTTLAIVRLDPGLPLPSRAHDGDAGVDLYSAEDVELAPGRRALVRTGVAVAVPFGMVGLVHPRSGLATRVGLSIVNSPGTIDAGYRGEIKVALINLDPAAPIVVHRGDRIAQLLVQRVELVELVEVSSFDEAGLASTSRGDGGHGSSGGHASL

Question: Which MIC [1, 7] does the source give for `C=CCn1c(/C=C/c2ccccc2)nc2ccccc21` [F0414] here?
Answer: The MIC was 4 µg/mL (≈ 15.4 µM).

Question: And the IC50 (human dUTPase [2]; luminescence readout)?
Answer: Its IC50 is 3.18 ± 0.96 µM.

Question: And the IC50 (human dUTPase [2]; same IC50 printed in μg/mL)?
Answer: The IC50 was 3.19 µM.

Question: And the CC50 (in vitro; African green monkey, Vero E6 cells)?
Answer: Its CC50 is > 200 µM.

Question: What about the CC50 (in vitro; African green monkey, Vero E6 cells, approximate conversion of >200 μM) of the same molecule?
Answer: Its CC50 is > 52 µg/mL.

Question: And the CC50 (in vitro; human, Caco2 cells)?
Answer: The CC50 was > 200 µM.

Question: What about the CC50 (in vitro; human, Caco2 cells, approximate conversion of >200 μM) of the same molecule?
Answer: The CC50 was > 52 µg/mL.

Question: What about the CC50 (in vitro; human, MRC-5 cells) of the same molecule?
Answer: Its CC50 is > 200 µM.

Question: What about the CC50 (in vitro; human, MRC-5 cells, approximate conversion of >200 μM) of the same molecule?
Answer: The CC50 was > 52 µg/mL.

Question: What about the MIC [3, 8] of the same molecule?
Answer: Its MIC is 4 µg/mL (≈ 15.4 µM).

Question: And the “SPR binding to human dUTPase” value (human dUTPase [4])?
Answer: Its value is “almost no RU signals”.

Question: And the MIC [5, 9]?
Answer: The MIC was 4 µg/mL (≈ 15.4 µM).

Question: With `NNC(=O)c1ccncc1` [Isoniazid] as the molecule, how does the MIC [1, 7] read?
Answer: The MIC was 0.5 µg/mL (≈ 3.65 µM).

Question: What about the MIC [3, 8] of the same molecule?
Answer: Its MIC is 0.5 µg/mL (≈ 3.65 µM).

Question: And the MIC [5, 9]?
Answer: Its MIC is 0.25 µg/mL (≈ 1.82 µM).

Question: Which MIC [1] does the source give for `CO[C@H]1/C=C/O[C@@]2(C)Oc3c(C)c(O)c4c(O)c(c(/C=N/N5CCN(C)CC5)c(O)c4c3C2=O)NC(=O)/C(C)=C\C=C\[C@H](C)[C@H](O)[C@@H](C)[C@@H](O)[C@@H](C)[C@H](OC(C)=O)[C@@H]1C` [Rifampicin] here?
Answer: Its MIC is 0.5 µg/mL (≈ 0.608 µM).

Question: What about the MIC [3] of the same molecule?
Answer: The MIC was 0.5 µg/mL (≈ 0.608 µM).

Question: What about the MIC ([5]; H37RV) of the same molecule?
Answer: The MIC was 0.25 µg/mL (≈ 0.304 µM).

Question: Which IC50 ([6]; compound pre-incubated with enzyme 1 h at room temperature, luminescence readout) does the source give for `O=c1ccn([C@H]2C[C@H](O)[C@@H](COC(c3ccccc3)(c3ccccc3)c3ccccc3)O2)c(=O)[nH]1` [Trt-dU] here?
Answer: Its IC50 is 1.04 ± 0.08 µM.

Question: And the “IC50 (Mt-dUTPase)” value ([6]; same IC50 printed in μg/ml)?
Answer: The value was 0.49 ± 0.02 µg/mL (≈ 1.04 µM).
